Patent US6291678A, “Process for the preparation of chiral keto-heterocycles of basic amino acids” (Warner-Lambert Company, priority 1998, dated 2001)

Tests used:
trypsin = molecular target: T1, trypsin (Bos taurus, UniProt P00760); assay: Trypsin inhibitory activity (chromogenic substrate S2222); format: biochemical; conditions: protocol similar to thrombin
T1 sequence (P00760 24-246): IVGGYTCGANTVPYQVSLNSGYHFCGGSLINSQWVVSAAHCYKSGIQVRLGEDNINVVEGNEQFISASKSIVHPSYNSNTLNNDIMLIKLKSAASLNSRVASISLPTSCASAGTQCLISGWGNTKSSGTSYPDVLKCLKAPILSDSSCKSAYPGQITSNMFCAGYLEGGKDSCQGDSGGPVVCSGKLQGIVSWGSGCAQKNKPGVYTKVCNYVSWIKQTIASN
Method: The ability of compounds to act as inhibitors of thrombin catalytic activity is assessed by determination of that concentration of test substance that inhibits by 50% (IC50) the ability of thrombin to cleave the chromogenic substrate S-2238 (H-D-Phe-L-Pip-L-Arg-p-nitroanilide.2 HCl). Typically thrombin in 10 mM HEPES, 100 mM NaCl, 0.05% BSA, and 0.1% PEG-8000 and the test substance in DMSO are incubated for 60 minutes at room temperature. To this mixture is added S-2238 and the velocity of S-2238 hydrolysis measured by observing the intensity of absorbance at 405 nm over 5 minutes.
A similar protocol is followed to access the trypsin inhibitory activity of the test substances, except thrombin is replaced by trypsin and the chromogenic substrate is S2222 (N-Bz-L-Ile-L-Glu-L-Gly-L-Arg-p-nitroanilide.HCl).

thrombin = thrombin (Homo sapiens, UniProt P00734); assay: Inhibition of thrombin catalytic activity (cleavage of chromogenic substrate S-2238); format: biochemical; conditions: S-2238 substrate; 60 minutes incubation at room temperature; absorbance at 405 nm over 5 minutes
Method: Typically thrombin in 10 mM HEPES, 100 mM NaCl, 0.05% BSA, and 0.1% PEG-8000 and the test substance in DMSO are incubated for 60 minutes at room temperature.

rat carotid artery = assay: Rat arterial model of thrombosis (FeCl3 injury of the carotid artery), markers of anticoagulant activity in vivo; conditions: for Fold Shift in aPTT: activated partial thromboplastin time at 30 minute time point, control aPTT 15 s; for Fold Shift in aPTT / Fold Shift in TT: loading dose 0.75 mg/kg plus infusion of 50 μg/kg/min; for Fold Shift in MOT: mean occlusion time, loading dose 0.75 mg/kg plus continual infusion of 50 μg/kg/min, control MOT 20 minutes; for Fold Shift in TT: thrombin time at 30 minute time point, control TT 30 s
Method: The ability of compounds to affect markers of anticoagulant activity in vivo were assessed in a rat arterial model of thrombosis. This model requires injury of the rat carotid artery by the application of a FeCl3 solution. Typically test substances are administered by applying a loading dose of 0.75 mg/kg plus continual infusion of 50 μg/kg/min.
The fold shift in aPTT and TT are measured at a 30 minute time point.

IC50 (trypsin) [nM]	IC50 (thrombin) [nM]	Compound	Fold Shift in aPTT (rat carotid artery)	Fold Shift in MOT (rat carotid artery)	Fold Shift in TT (rat carotid artery)
1	5	N=C(N)NCCC[C@H](NC(=O)[C@@H]1CC[C@H]2CN(C(=O)CCc3ccccc3)CC(=O)N21)C(=O)c1nccs1 [A]	3.2	2.4	13
4350	30	N=C(N)N1CCC[C@@H](C[C@H](NC(=O)[C@@H]2CC[C@H]3CN(C(=O)CCc4ccccc4)CC(=O)N32)C(=O)c2nccs2)C1 [B]	3.1	> 3	15
